Results as given in US20040059104A1, “Nucleotide mimics and their prodrugs” (priority 2002, published 2004).
Like-named read-outs stand apart in the source and are kept apart here.

Key:
HIV-1RF = experiment: Anti-HIV-1 cytoprotection assay in CEM-SS cells; assay type: cell-based; conditions: Human immunodeficiency virus 1, 144 h; CEM-SS cells infected with HIV-1RF, MOI approximately 0.01, 6 days, MTS; read-out: CEM-SS IC50 (Anti-HIV Screening)
Method: (§1) ollowing paper: Structure-Activity and Cross-Resistance unodeficiency Virus Type 1-Specific ckheit, Jr. et al., Antimicrobial Agents and s were evaluated in CEM-SS cell cultures V-1RF at an MOI of approximately 0.01. At he soluble tetrazolium-based dye MTS viability and quantify compound toxicity of metabolically active cells to yield a soluble analysis of cell viability and compound
Efficacy Evaluation in CEM-SS Cells Anti-HIV-1 Cytoprotection Assay
Cell Preparation—CEM-SS cells were passaged in T-75 flasks prior to use in the antiviral assay. On the day preceding the assay, the cells were split 1:2 to assure they were in an exponential growth phase at the time of infection. Total cell and viability quantification was performed using a hemacytometer and trypan blue exclusion. Cell viability was greater than 95% for the cells to be utilized in the assay. The cells were resuspended at 5×10^4 cells/ml in tissue culture medium and added to the drug-containing microtiter plates in a volume of 50 μl.
Virus Preparation—The virus used for these tests was the lymphocytropic virus strain HIV-1RF. This virus was obtained from the NIH AIDS Research and Reference Reagent Program and was grown in CEM-SS cells for the production of stock virus pools. For each assay, a pre-titered aliquot of virus was removed from the freezer (−80° C.) and allowed to thaw slowly to room temperature in a biological safety cabinet. The virus was resuspended and diluted into tissue culture medium such that the amount of virus added to each well in a volume of 50 μl was the amount determined to give between 85 to 95% cell killing at 6 days post-infection.
(§2) At assay termination, the assay plates were stained with the soluble tetrazolium-based dye MTS (CellTiter Reagent Promega) to determine cell viability and quantify compound toxicity. MTS is metabolized by the mitochondrial enzymes of metabolically active cells to yield a soluble formazan product, allowing the rapid quantitative analysis of cell viability and compound cytotoxicity. […] At termination of the assay, 20 μL of MTS reagent was added per well. The microtiter plates were then incubated 4-6 hrs at 37° C. for the HIV cytoprotection assay; the incubation intervals were chosen based on empirically determined times for optimal dye reduction. Adhesive plate sealers were used in place of the lids, the sealed plate was inverted several times to mix the soluble formazan product and the plate was read spectrophotometrically at 490 nm with a Molecular Devices Vmax plate reader.

Escherichia coli = experiment: Antimicrobial assay, minimal inhibitory concentration; assay type: cell-based; conditions: Escherichia coli, read-out: E. coli MIC
CEM cells = experiment: Cell uptake procedure (intracellular nucleotide levels by HPLC); assay type: cell-based, Human; conditions: 24 hour incubation, limit of detection about 5 pmol/10^6 cells
Method: CEM cells were resuspended in RPMI at 1×10^7 cells/mL. The appropriate amount of each compound was added to well and then 0.5 ml of the cells was aliquoted into the appropriate number of wells of a 24-well plate and incubated the cells at 37° C. Cells were harvested after 24 hours of incubation. To harvest cells they were transferred to a microfuge tube and spun for one minute at high speed. The samples were washed in PBS containing 1 mg/ml BSA and re-centrifuged. The PBS was then aspirated and 200 μL of ice-cold 60% methanol was added to extract the nucleotides. The extracts were incubated overnight at −20° C. The next day the samples were spun at high speed in a microfuge for 20 minutes and the supernatant transferred to clean tubes and dried in the speed vac. After drying the samples were resuspended in 50 μl, filtered, and the samples then directly injected onto the HPLC. The nucleotides were analyzed using reverse phase HPLC with ion-pairing agents for separation of the nucleotides. The procedure was adapted from the following paper: Furman, et al., Proc. Natl. Acad. Sci. USA 1986, 83, 8333-8337.
The limit of detection was estimated to be 5 pmol/10^6 cells.

[1] = Compound toxicity in CEM-SS cells (MTS staining); assay type: cell-based; conditions: human, read-out: CEM-SS TC50
Method: as §1, §2

in vitro = conditions: human, pH 7.4

Q: With `[BH3-][P+](O)(OCC1OC(n2cc(C)c(=O)[nH]c2=O)CC1N=[N+]=[N-])OP(=O)(O)C(F)(F)P(=O)(O)O` (single isomer, unassigned) [Compound 27-isomer 1, 3′-Azido-3′-deoxythymidine 5′-α-P-borano-β,γ-(difluoromethylene)triphosphate] as the compound, how does the IC50 (HIV-1RF) read?
A: The IC50 was 1640 nM.

Q: And the MIC (Escherichia coli; overnight at 37° C., tested 0-200 μg/ml, NA = Not active)?
A: The MIC was 60 µg/mL.

Q: What about the MIC (Escherichia coli; value in brackets beside the μg/ml value) of the same compound?
A: Its MIC is 111 µM.

Q: And the “Intracellular levels of 27” value (CEM cells; incubation concentration 25 μM)?
A: The value was “BLD”.

Q: What about the “Intracellular levels of 27” value (CEM cells; incubation concentration 50 μM) of the same compound?
A: The value was 5.6 pmol/10^6 cells.

Q: What about the “Intracellular levels of 27” value (CEM cells; incubation concentration 100 μM) of the same compound?
A: The value was 10.6 pmol/10^6 cells.

Q: What about the CC50 [1] of the same compound?
A: The CC50 was greater than 200000 nM.

Q: What about the half-life at 500 μM (in vitro) of the same compound?
A: The half-life at 500 μM was greater than 48 h.
